# Test results as given in PubChem BioAssay (NCI).
# “And” between values parts separate entries of the source, which are not always exact repeats. Identical values can stand only once.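 Test compounds were applied to cells in 96-well plates for 48 hours at 5 doses. GI50: concentration for 50% inhibition of growth. TGI: concentration producing complete growth inhibition.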
# What was measured:
# Assay in all cases: NCI tumour cell line growth inhibition, 48 h
# [1] = test system: 786-0 renal
# [2] = test system: CCRF-CEM leukemia
# [3] = test system: COLO 205 colon
# [4] = test system: HCC-2998 colon
# [5] = test system: SF-295 CNS
# [6] = test system: SNB-19 CNS
# [7] = test system: SNB-75 CNS
# [8] = test system: UACC-62 melanoma
# [9] = test system: UO-31 renal
# [10] = test system: NCI/ADR-RES ovarian
SMILES,GI50 [1],TGI [1],GI50 [2],TGI [2],TGI [3],GI50 [4],TGI [4],GI50 [5],TGI [5],GI50 [6],TGI [6],GI50 [7],TGI [7],GI50 [8],TGI [8],GI50 [9],TGI [9],GI50 [3],TGI [10],GI50 [10]
C=Cc1cncc(C#N)c1CCc1c(C#N)cncc1C=C,> 100 µM,> 100 µM,> 100 µM,> 100 µM,> 10 µM,> 100 µM,> 100 µM,> 100 µM,> 100 µM,> 100 µM,> 100 µM,> 100 µM,> 100 µM,> 100 µM,> 100 µM,> 100 µM,> 100 µM,,,
CC[C@@]1(O)C(=O)OCc2c1cc1n(c2=O)Cc2cc3cc4c(cc3nc2-1)OCO4,,0.00274 µM,,0.0152 µM and < 0.0414 µM,0.71 µM,,0.208 µM,,0.025 µM,,,,,,0.00717 µM,,0.0251 µM and < 0.015 µM,< 0.0341 µM,> 100 µM,
C=C1C(O)C2C(=C(CC)C13CC3)C(=O)C(C)(C)C2OC (stereo not given),> 100 µM,> 100 µM,27.5 µM,> 100 µM,> 100 µM,,,> 100 µM,> 100 µM,> 100 µM,> 100 µM,,,84.9 µM,> 100 µM,81.5 µM,> 100 µM,> 100 µM,> 100 µM,92.7 µM
C[C@H](OCc1ccccc1)C(=O)N1CCS(=O)(=O)N2CCC[C@@H]2C1=O,,> 100 µM,,> 100 µM,> 100 µM,,> 100 µM,,> 100 µM,,> 100 µM,,> 100 µM,,> 100 µM,,> 100 µM,,,
CCCCOC(=O)N1CCN(/[N+]([O-])=N/Oc2ccc([N+](=O)[O-])cc2[N+](=O)[O-])CC1,2.47 µM,5.67 µM,,,5.99 µM,,,28.6 µM,> 100 µM,15.1 µM,36.8 µM,21.1 µM,37.9 µM,13.6 µM,26.8 µM,3.84 µM,41.3 µM,2.63 µM,> 100 µM,3.43 µM
COc1ccc(/C=C/c2cc(OC)c(OC)c(OC)c2)cc1,,> 100 µM,,> 100 µM,11 µM,,15.7 µM,21.9 µM,61.3 µM,,> 100 µM,,> 21.7 µM,,> 100 µM,,> 100 µM,,,
CCOC(=O)/C(C1=NCCN1)=C(\O)c1ccccc1,,> 100 µM,,> 100 µM,> 100 µM,,> 100 µM,,> 100 µM,,> 100 µM,,,,> 100 µM,,> 100 µM,,,
COc1ccc(CCN2CC=Cn3c2nc2ccccc2c3=O)cc1,0.0445 µM,31.6 µM,0.03 µM,> 100 µM,0.0847 µM,0.0332 µM,35.5 µM,0.0269 µM,> 100 µM,0.0614 µM,> 100 µM,,,0.232 µM,> 100 µM,0.0683 µM,> 100 µM,0.0267 µM,0.77 µM,0.0179 µM
OC1(C23CC4CC(CC(C4)C2)C3)CSCC1(O)C12CC3CC(CC(C3)C1)C2 (stereo not given),,> 100 µM,,> 10 µM,> 100 µM,,> 100 µM,,> 100 µM,,> 100 µM,,> 100 µM,,> 100 µM,,> 100 µM,,,
CCCCCCCCCCCCCCCC(=O)OCC1OC(n2cc(F)c(=O)[nH]c2=O)C(N)C(O)C1O (stereo not given),,35.2 µM,,31.7 µM,34 µM,,27.8 µM,,31.1 µM,,39.2 µM,,38.6 µM,,30 µM,,30.8 µM,,,
Cc1cccc(/C=N/NC(=S)N2CCCC2)n1,2.45 µM,2.85 µM,0.0659 µM,0.85 µM,,0.102 µM,0.92 µM,1.08 µM,4.24 µM,1.4 µM,> 34.6 µM,,,0.587 µM,2.8 µM and 1 µM,0.748 µM,4.19 µM,0.193 µM,6.93 µM and 4.89 µM,0.319 µM
CCOC(=O)CCC(NC(=O)OCc1ccccc1)C(=O)NC(CCC(=O)OCC)C(=O)NC(CCC(=O)OCC)C(=O)NC(CCC(=O)OCC)C(=O)NC(CCC(=O)OCC)C(=O)NC(CCC(=O)OCC)C(=O)NC(CCC(=O)OCC)C(=O)OCC (stereo not given),,> 100 µM,,> 100 µM,,,53.8 µM,,,,> 100 µM,,> 100 µM,,> 100 µM,,> 100 µM,,,
Cc1ccccc1C1OC(=O)c2ccc3ccccc3c21 (stereo not given),,18.9 µM,,17.6 µM,2.28 µM,,12 µM,,> 31.6 µM,,> 91.5 µM,,31.3 µM,,6.97 µM,,10.9 µM,,,
CCCCCCC[CH2][Sn]([CH2]CCCCCCC)([O]c1cccc2cccnc12)[O]c1cccc2cccnc12,1.49 µM,2.84 µM,0.506 µM,3.25 µM,3.41 µM,1.99 µM,3.43 µM,2.38 µM,6.08 µM,2.94 µM,9.31 µM,2.74 µM,9.53 µM,1.82 µM,3.9 µM,2 µM,5.42 µM,1.86 µM,,
Cc1cn(C2CC3C(COCN3O)O2)c(=O)[nH]c1=O (stereo not given),,> 100 µM,,> 100 µM,> 100 µM,,> 100 µM,,> 100 µM,,> 100 µM,,> 100 µM,,> 100 µM,,> 100 µM,,,
NC(=O)N/N=C1/CCC(O)CC1CC(=O)O (stereo not given),,> 100 µM,,> 100 µM,> 100 µM,,,,> 100 µM,,> 100 µM,,,,> 100 µM,,> 100 µM,,> 100 µM,
COc1ccc2c(c1)C(=O)c1ccc(OC)cc1C2=S,,> 100 µM,,> 100 µM,> 100 µM,,> 100 µM,,> 100 µM,,> 100 µM,,87.4 µM,,> 100 µM,,> 100 µM,,,
C[C@@]12CCC(=O)c3coc(c31)C(=O)c1cc3c(cc12)C(=O)C=CC3=O,> 1 µM,> 1 µM and 31 µM,,> 23.2 µM,> 1 µM and 29.7 µM,> 1 µM,> 100 µM,> 1 µM,> 1 µM and 31.1 µM,> 1 µM,> 100 µM,> 1 µM,> 1 µM and 43.9 µM,> 1 µM,> 1 µM and 28.9 µM,> 1 µM,> 1 µM and 30.9 µM,> 1 µM,,
